According to patent publication US20210161915A1, “GABA-A ANTAGONISTS FOR TREATING SUBSTANCE […]” (ASARINA PHARMA APS, priority 2018, published 2021):

Columns and labels:
[1] = biological target: T1, human alpha4,beta,delta GABAA receptor subtype (Homo sapiens, UniProt P28472+P48169); experiment: Patch-clamp (Dynaflow system) current response in HEK-293 cells transfected with alpha4,beta3,delta GABAA receptor; format: cell-based
T1 construct: expressed in transfected cells; host or cells: HEK-293
Description: (§1) In these tests the protocol was optimized to be similar to the physiological conditions in the synaptic cleft.
(§2) Cell culture: HEK-293 cells, permanently transfected with the human alpha1,beta,gamma and alpha4,beta,delta GABAA receptor subtypes, were seeded at a density of 3×10^4/25 cm^2 in a culture flask. The transfected cells were used for patch-clamp experiments 3 days after seeding. When using the cells for patch-clamp experiments the cells were washed twice with oxygen-bubbled extra cellular (EC) solution (see below). About 5 mL EC was then added and the cells were kept in the incubator for about 15 minutes. After 15 minutes the cells came loose from the bottom of the flask and were separated by carefully sucking a couple of times with a Pasteur pipette.
(§3) Dynaflow™ system with Resolve chip was used for patch-clamp experiments: The electrophysiological recordings from HEK-293 cells were performed under voltage-clamp conditions using patch-clamp technique and the Dynaflow™ system (Dynaflow Pro II Platform Zeiss Axiovert 25; Cellectricon AB, Sweden) with Resolve chips as application system.
(§4) Patch pipettes were pulled from borosilicate glass and polished to a resistance 2-5 MΩ when filled with suitable intracellular solution (IC) (pH was adjusted to 7.2) and immersed in bath solution (extracellular, EC) (pH is adjusted to 7.4).
(§5) The recordings were made using an Axopatch 200B amplifier, a Digidata 1322A (Axon instruments, Foster city, USA). Data were analysed using the pCLAMP software sampled at 10 kHz, filtered at 2-10 kHz and analyzed with Clampfit (versions 9.0, both from Axon instruments, Foster city, USA). No higher series resistance than 20 MΩ between pipette and cell membrane was accepted. No series resistance compensation was used. The stability of series resistance was monitored repeatedly from the time course of capacitative transients during the experiments. The measured liquid-junction potential between EC and IC was subtracted in all data presented. All experiments were performed at room temperature (21-23° C.).
(§6) All steroids were dissolved to the concentration of 6 mM in DMSO. […] End solutions were the solutions added into the wells of the chip.
(§7) Electrophysiology: After compensating for the liquid junction potential a steady holding potential of −17 mV was used in all experiments. […] By using the holding potential of −17 mV and the intracellular solution with low chloride ion concentration the chloride ions flux into the cell when the receptors were activated.
The Dynaflow system allowed application of solutions for as short as 40 ms up to minutes in time. […] There was no difference in response between the second and the third GABA application. Therefore, the first GABA application was always repeated twice and the second response was used in the analysis.
Washout: GABA is quite soluble in water and easy to washout from the receptor. […] Steroids on the other hand were difficult to dissolve in water and also difficult to washout from the receptor. In the experiments, THDOC and 3alpha-OH-adiol were used as the positive GABAA receptor modulating steroids. With 2 minutes washout time, 200 nM THDOC and 3alpha-OH-adiol was completely washed out as shown by neither an accumulative nor a desensitization effect.
(§8) Different incubation times were studied to achieve the optimal time for attaining stable results and minimize the washout time.

[2] = intended doses; cited from earlier work
female Wistar rats = experiment: Resident/intruder (R/I) test of estrus cycle-dependent tolerance/withdrawal symptoms; format: in vivo, rat; details: 1.5 mg/kg s.c. daily
Description: Experimental set-up: Experiments were carried out in female cycling rats. Rats have steroid variations related to ovulation similar to humans. […] The symptoms are related to the excitability changes in the brain that precedes withdrawal symptoms. Symptoms like migraine attacks and epileptic seizure(s) will arrive after a period of tolerance (Reddy & Rogawski 2009; Slawecki et al 2000, Welch K M. 2005). Symptoms in rats were investigated using a resident/intruder (R/I) test with behavioral analysis at the diestrus and the estrus phases of the estrus cycle (FIG. 3). The symptoms referred to in this Example are behavioral symptoms of withdrawal.
The frequency of behavioral symptom expression at diestrus and estrus during treatment were compared to the same behavior expression prior to treatment. The intruder rats were ovariectomized animals of the same age and size as the residents.
Animals: In total, 42 female Wistar rats (Taconics, Lille Skensved, Denmark) were used. At arrival the animals were approximately 9 weeks old and weighed 185-209 g. For identification, the rats were marked on their tails with permanent ink (PorciMark™). The animals were housed in triads at the animal facility where all experiments took place (Umea University, Umea, Sweden). A reversed light/dark cycle was used (12 h/12 h light/dark; lights off at 04:00). Food (standard chow) and water was available ad libitum. The rats were handled daily for two weeks prior to the start of testing. Nine rats were randomly selected as intruder rats and were ovariectomized. The remaining intact rats were tested for estrus cycle-dependent symptomatic behavior. The study protocol was approved by the Regional Ethics Committee of Umea, Sweden. All animal handling and experiments were performed according to Swedish legislation.
Ovariectomy of the intruder rats: Ovariectomy of the intruder rats was carried out by ligation of uterine tubes and removal of ovaries under anesthesia with 2.3% Isoflurane (Baxter Medical AB, Kista, Sweden) in oxygen (O2 flow rate 0.32 L/min). The surgical suture techniques included the use of surgical glue (Vetbond Tissue Adhesive No 1469 3M) in addition to sutures. Pain relief (Rimadyl Vet, 0.25 mg/100 g) was given daily for one week post-surgery.
Determination of estrus cycle phase: Estrus cycle phase (proestrus, estrus, metestrus and diestrus) of the rats was determined by microscope examination of vaginal smears. The smears were collected daily between 08:00 and 10:00, using a glass pipette with 50-70 μL normal saline (NaCl 0.9%), and stained with 0.2% toluidine blue. However, on the day of R/I test, the vaginal smear of a tested animal was collected immediately after the encounter. In addition, during the 3beta-hydroxy-5alpha-pregnan-20-one treatment, the smears were collected directly in the morning before injections to confirm expected estrus cycle phase. Diestrus (including metestrus) is characterized by the presence of leucocytes in smears. Both nucleated epithelial cells and cornified epithelial cells are present at diestrus but more abundantly at metestrus than at late diestrus. Estrus (including proestrus) is characterized by thick smears free from leucocytes but with abundant presence of nucleated epithelial cells (predominant in proestrus) and cornified epithelial cell (predominant at estrus). Further details are provided in Hubscher et al., 2005. […]

[3] = biological target: T2, human alpha1,beta2,gamma2 Long GABAA receptor subtype (Homo sapiens, UniProt P14867+P47870); experiment: Patch-clamp (Dynaflow system) current response in HEK-293 cells transfected with alpha1,beta2,gamma2 Long GABAA receptor; format: cell-based
T2 construct: expressed in transfected cells; host or cells: HEK-293
Description: as §1, §2, §3, §4, §5, §6, §7
The Dynaflow system allowed application of solutions for as short as 40 ms up to minutes in time.
In the experiments, THDOC and 3alpha-OH-adiol were used as the positive GABAA receptor modulating steroids.
as §8
Study design: Studies were conducted on current response mediated by chloride ion flux through the GABAA receptor. […] The same patch-clamp technique was used as described above (Example 1) using the Dynaflow™ application system. THDOC was used as positive GABAA receptor modulating steroid as it has shorter washout time compared to allopregnanolone but works with the same mechanisms on the same GABAA receptor binding site as allopregnanolone.
HEK-293 cells, permanently transfected with cDNA expressing the human alpha1,beta2,gamma2 Long GABAA receptor subtype. The tissue culture and the handling of the cells were as described in Example 1. In the patch-clamp experiments the transfected cells were used minimum two passages after defrosting and 3 days after seeding. The cells were seeded for maximal 25 times.

T1 sequence (P48169 36-554): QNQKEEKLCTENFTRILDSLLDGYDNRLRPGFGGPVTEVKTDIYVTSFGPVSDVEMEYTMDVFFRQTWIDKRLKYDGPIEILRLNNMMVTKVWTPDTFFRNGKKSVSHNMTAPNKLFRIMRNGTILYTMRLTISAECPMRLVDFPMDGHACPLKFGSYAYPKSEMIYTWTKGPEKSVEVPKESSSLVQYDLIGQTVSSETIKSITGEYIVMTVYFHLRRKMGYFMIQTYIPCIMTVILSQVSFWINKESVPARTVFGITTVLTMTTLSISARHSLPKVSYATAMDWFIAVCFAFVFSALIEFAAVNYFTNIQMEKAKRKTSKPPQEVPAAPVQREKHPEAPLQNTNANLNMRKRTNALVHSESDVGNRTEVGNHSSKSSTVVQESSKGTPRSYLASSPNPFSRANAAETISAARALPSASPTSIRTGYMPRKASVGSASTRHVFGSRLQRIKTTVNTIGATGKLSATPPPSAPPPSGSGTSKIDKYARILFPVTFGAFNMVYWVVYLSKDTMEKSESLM
T1 sequence (P28472 26-473): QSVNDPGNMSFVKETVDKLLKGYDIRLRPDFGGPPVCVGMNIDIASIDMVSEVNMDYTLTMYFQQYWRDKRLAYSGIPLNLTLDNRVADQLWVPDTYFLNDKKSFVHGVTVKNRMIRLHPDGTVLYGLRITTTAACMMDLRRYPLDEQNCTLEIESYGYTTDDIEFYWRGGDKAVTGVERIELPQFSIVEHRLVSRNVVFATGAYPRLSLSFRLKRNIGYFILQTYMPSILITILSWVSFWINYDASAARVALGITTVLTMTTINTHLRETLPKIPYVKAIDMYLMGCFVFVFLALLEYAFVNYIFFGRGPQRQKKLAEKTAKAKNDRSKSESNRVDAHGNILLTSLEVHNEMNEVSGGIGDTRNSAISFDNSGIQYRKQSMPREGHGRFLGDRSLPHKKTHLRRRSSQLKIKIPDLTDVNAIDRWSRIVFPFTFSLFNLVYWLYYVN
T1 sequence (O14764 17-452 partner limits assumed): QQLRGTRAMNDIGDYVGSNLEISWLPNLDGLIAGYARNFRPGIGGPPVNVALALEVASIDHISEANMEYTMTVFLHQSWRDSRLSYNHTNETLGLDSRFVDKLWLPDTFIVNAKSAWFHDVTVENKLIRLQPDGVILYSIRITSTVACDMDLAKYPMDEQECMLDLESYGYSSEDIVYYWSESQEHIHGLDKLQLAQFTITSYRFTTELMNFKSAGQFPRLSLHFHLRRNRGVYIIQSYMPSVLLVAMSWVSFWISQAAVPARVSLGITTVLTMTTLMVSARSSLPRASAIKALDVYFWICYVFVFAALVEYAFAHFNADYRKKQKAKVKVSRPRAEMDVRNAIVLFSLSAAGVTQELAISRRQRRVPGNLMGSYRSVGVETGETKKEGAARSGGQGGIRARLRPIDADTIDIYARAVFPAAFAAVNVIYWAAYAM
T2 sequence (P14867 28-456): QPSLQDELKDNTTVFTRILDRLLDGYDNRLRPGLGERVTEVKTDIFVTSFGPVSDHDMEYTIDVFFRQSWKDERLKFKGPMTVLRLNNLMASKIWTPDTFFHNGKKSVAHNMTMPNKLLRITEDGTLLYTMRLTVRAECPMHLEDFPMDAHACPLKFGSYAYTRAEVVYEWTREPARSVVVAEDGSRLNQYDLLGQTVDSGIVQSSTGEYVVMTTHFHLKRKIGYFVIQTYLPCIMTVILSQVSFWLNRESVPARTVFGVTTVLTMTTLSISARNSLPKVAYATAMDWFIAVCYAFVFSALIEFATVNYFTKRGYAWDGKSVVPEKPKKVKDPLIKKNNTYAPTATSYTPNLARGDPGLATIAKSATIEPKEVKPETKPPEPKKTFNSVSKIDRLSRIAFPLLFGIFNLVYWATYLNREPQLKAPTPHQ
T2 sequence (P47870 25-512 limits assumed): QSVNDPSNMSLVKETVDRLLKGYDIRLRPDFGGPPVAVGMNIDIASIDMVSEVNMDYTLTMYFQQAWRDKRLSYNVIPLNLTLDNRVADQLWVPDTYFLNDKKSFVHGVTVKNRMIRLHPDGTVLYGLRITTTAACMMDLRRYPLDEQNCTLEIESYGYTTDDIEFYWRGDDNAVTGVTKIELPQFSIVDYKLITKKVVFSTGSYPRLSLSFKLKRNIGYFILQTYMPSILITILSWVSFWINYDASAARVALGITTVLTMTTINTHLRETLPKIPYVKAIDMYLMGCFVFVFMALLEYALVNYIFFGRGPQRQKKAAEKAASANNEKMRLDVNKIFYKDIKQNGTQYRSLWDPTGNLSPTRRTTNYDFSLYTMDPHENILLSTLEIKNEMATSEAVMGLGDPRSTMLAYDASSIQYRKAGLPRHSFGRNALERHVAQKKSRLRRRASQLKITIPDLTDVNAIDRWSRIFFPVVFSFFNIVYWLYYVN
T2 sequence (P18507 40-475 partner): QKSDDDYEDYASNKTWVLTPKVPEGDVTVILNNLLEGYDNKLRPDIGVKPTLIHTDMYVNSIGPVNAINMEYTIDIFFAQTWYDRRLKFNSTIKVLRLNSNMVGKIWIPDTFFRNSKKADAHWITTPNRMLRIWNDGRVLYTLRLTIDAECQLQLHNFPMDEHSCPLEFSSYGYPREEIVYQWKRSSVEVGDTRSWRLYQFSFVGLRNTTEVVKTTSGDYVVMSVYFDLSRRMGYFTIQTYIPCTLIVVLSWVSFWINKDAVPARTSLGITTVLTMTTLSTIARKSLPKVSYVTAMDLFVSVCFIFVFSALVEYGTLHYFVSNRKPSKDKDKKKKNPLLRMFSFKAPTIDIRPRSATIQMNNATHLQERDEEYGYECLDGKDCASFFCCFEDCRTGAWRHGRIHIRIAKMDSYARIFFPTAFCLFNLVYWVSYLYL

CC(=O)[C@H]1CC[C@H]2[C@@H]3CC[C@H]4C[C@@H](O)CC[C@]4(C)[C@H]3CC[C@]12C [UC1010, 3beta-hydroxy-5alpha-pregnan-20-one]
The effect of 1 μM UC1010 on 0.6 μM Androstanediol + 3 μM GABA, Mean ± SEM % [1]: −18 ± 2.0%
The effect of 1 μM UC1010 on 0.8 μM Androstanediol + 3 μM GABA, Mean ± SEM % [1]: −22 ± 2.6%
Current response of compound by itself ([1]; 1 μM, no GABA, no THDOC): −0.4±0.3 pA
The effect of 1 μM UC1010 on 0.1 μM THDOC alone baseline, Mean ± SEM % ([1]; baseline shift without GABA): −43 ± 3.5%
The effect of 1 μM UC1010 on 3 μM GABA response, Mean ± SEM % ([1]; control, GABA alone): −6.7 ± 3.3%
The effect of 1 μM UC1010 on 0.1 μM THDOC + 3 μM GABA, Mean ± SEM % ([1]; steady state): −26 ± 2.4%
Safety in clinical studies [2]: shown safe
Symptoms at diestrus during treatment in comparison to mean diestrus without treatment (female Wistar rats; 14 rats with symptoms): significantly decreased
Relative effect of treatment on symptomatic behavior at diestrus (female Wistar rats; baseline diestrus set to 100%, baseline estrus set to 0%, n=14): −89%
Estrus cycle duration or vaginal smear appearance during treatment (female Wistar rats; data not shown): did not change
Symptomatic behaviors at both diestrus phases when treated compared to diestrus at baseline (female Wistar rats; nine rats with symptoms in both cycles): less frequent
Effect size, Cohen's d (female Wistar rats; symptoms at diestrus): 1.67
Imax/Emax Mean ± SEM %, antagonism of THDOC enhanced effect ([3]; 1 μM UC1010 + 30 μM GABA + 200 nM THDOC): −22.3±5.3%
Imax/Emax Mean ± SEM %, effect on GABA response ([3]; 1 μM UC1010 + 30 μM GABA, compared to GABA alone): +10.3 ± 7.8%
Emax ([3]; HEK293, 0.1-1 μM UC1010 + 30 μM GABA + 200 nM THDOC, concentration-dependent experiment, read-out: Imax/Emax, max antagonism of THDOC effect): -21 ± 4.6%
Emax at 1 µM ([3]; HEK293, read-out: Imax/Emax Mean ± SEM %, effect on GABA response, 1 μM UC1010 + 30 μM GABA, compared to GABA alone): 10.3%
The effect of 1 μM UC1010 on 8 μM Androstanediol + 30 μM GABA, Mean ± SEM % ([3]; steady state (phasic effect)): −30 ± 1.7%
The effect of 1 μM UC1010 on 8 μM Androstanediol, baseline shift, Mean ± SEM % ([3]; tonic effect): −33 ± 7.6%
